Assay results from patent US20230341377A1, “DISCONNECTION AGENTS” (DC Europa Limited, priority 2020, published 2023).

Experiments:
[1] = system: Hs578 cell line for human breast cancer, U373 cell line of human glioblastoma, and HepG2 hepatocellular carcinoma cells; assay: SMS assay (small molecule sharing), cell dye-sharing between cancer cells, cell lines pooled; format: cell-based; conditions: for effect on cell dye-sharing in the SMS assay: concentration range of 0.1 to 30 μM; for inhibition of cell dye-sharing in the SMS assay: various doses that are not cytotoxic, in one or more cell lines
Excerpt: (§1) The SMS assay was developed to assess the transfer of cell dye (for example the acetoxymethyl [AM]-based Calcein AM), between cancer cells. The SMS assay can be applied to any cell lines forming tumour networks such as tumour microtubes (TM) or tunneling nanotubes (TNT), which enable the transfer of molecules across cells. The SMS assay can be used to assess networking capabilities of any cancer cell lines including HepG2 hepatocellular carcinoma cells, Hs578T cell line for human breast cancer, and U373 cell line for human glioblastoma.
(§2) The SMS assay is illustrated in FIG. 1. For the SMS assay, two sets of cells are stained with the cell dye of choice and a customary cell tracker dye (for example cell tracker blue) using established staining techniques (steps 1 and 2). Each set of cells are then co-incubated with the compound of interest to assess its capabilities to modulate the cells small molecule sharing characteristics (step 3). Then the two sets of cells are combined on a plate, for example at a ratio of 1:1, and cultured in the presence of the compound of interest (Step 4).
(§3) Finally, live cells are evaluated for viability and analyzed by flow cytometry for the uptake of cell dye in the […] cells (Step 5). The comparison of cell tracker uptake against positive and negative control enables the assessment of the compound's ability to modulate the tumour networks including those formed by TM and TNTs
(§4) The SMS assay has been applied to assess the modulation of network sharing capabilities of Protein Kinase C Modulators (PKCm) at various concentrations in the Hs578 cell line for human breast cancer, U373 cell line of human glioblastoma, and HepG2 hepatocellular carcinoma cells. PBS vehicle was used as negative control and the PKCm PHORBOL 12-MYRISTATE 13-ACETATE (PMA) at a concentration of 5 nM was used as the positive control.
(§5) FIG. 2A and FIG. 2B show the percentage of cell tracker cells that were accepting the cell dye transfer from separately stained donor cells according to the SMS assay of Example. The percentage of acceptor cells detected is shown in comparison to vehicle (upper horizontal line) and PMA at 5-10 nM concentration (lower horizontal line). Active PKCm in the SMS assay (FIG. 2A) show a decrease in acceptor cells relative to vehicle at certain concentration. […] The upper limit of the tested concentrations was determined as the maximal non-cytotoxic dose.

Hs578T cells = assay: SMS assay in Hs578T cells; format: cell-based, human; conditions: versus vehicle and PMA (5 nM), FIG. 2A, 2B, 2D, 2E
Excerpt: as §1, §2, §3, §4, §5

HepG2 cells = assay: SMS assay in HepG2 cells; format: cell-based, human; conditions: versus vehicle and PMA (10 nM), FIG. 2C
Excerpt: as §1
(§6) The SMS assay is illustrated in FIG. 1. For the SMS assay, two sets of cells are stained with the cell dye of choice and a customary cell tracker dye (for example cell tracker blue) using established staining techniques (steps 1 and 2). […]
(§7) Finally, live cells are evaluated for viability and analyzed by flow cytometry for the uptake of cell dye in the flow tracker-stained cells (Step 5). […]
as §5, with “line).” for “line). Active PKCm in the SMS assay (FIG. 2A) show a decrease in acceptor cells relative to vehicle at certain concentration.”

PKCα = PKCα (Homo sapiens, UniProt P17252); set-up: key: +—activation; ++—strong activation; conditions: cPKCs, gene PRKCA; cited from earlier work
PKCβI/PKCβII = system: PKCβI/PKCβII; set-up: key: +—activation; ++—strong activation; conditions: cited from earlier work; for activation of PKCβI/PKCβII: cPKCs, gene PRKCB
PKCε = molecular target: T1, PKCε (Homo sapiens, UniProt Q02156); set-up: key: +—activation; ++—strong activation; conditions: nPKCs, gene PRKCE; cited from earlier work
T1 sequence (Q02156 1-737): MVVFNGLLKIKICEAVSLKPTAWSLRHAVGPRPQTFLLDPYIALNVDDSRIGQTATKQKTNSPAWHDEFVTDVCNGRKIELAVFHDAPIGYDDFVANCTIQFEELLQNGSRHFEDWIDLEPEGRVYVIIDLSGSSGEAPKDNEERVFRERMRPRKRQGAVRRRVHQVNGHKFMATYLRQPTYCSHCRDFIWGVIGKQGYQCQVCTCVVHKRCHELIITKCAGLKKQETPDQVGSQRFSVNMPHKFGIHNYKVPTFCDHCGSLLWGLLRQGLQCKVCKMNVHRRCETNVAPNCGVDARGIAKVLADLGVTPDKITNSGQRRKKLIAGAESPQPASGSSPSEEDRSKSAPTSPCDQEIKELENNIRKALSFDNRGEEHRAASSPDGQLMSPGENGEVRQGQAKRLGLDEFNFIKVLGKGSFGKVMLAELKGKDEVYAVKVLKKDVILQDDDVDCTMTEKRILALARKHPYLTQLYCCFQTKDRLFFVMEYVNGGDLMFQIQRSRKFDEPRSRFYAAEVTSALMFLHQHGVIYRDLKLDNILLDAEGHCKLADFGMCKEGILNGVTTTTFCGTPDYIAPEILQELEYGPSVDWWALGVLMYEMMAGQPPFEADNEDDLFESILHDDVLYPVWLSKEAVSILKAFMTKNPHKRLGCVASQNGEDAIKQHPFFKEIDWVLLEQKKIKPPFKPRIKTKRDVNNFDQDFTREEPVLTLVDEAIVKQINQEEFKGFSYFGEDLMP

PKCγ = PKCγ (Homo sapiens, UniProt P05129); set-up: key: +—activation; ++—strong activation; conditions: cPKCs, gene PRKCG; cited from earlier work
PKCδ = PKCδ (Homo sapiens, UniProt Q05655); set-up: key: +—activation; ++—strong activation; conditions: nPKCs, gene PRKCD; cited from earlier work
PKCδ, sequence (Q05655 whole entry): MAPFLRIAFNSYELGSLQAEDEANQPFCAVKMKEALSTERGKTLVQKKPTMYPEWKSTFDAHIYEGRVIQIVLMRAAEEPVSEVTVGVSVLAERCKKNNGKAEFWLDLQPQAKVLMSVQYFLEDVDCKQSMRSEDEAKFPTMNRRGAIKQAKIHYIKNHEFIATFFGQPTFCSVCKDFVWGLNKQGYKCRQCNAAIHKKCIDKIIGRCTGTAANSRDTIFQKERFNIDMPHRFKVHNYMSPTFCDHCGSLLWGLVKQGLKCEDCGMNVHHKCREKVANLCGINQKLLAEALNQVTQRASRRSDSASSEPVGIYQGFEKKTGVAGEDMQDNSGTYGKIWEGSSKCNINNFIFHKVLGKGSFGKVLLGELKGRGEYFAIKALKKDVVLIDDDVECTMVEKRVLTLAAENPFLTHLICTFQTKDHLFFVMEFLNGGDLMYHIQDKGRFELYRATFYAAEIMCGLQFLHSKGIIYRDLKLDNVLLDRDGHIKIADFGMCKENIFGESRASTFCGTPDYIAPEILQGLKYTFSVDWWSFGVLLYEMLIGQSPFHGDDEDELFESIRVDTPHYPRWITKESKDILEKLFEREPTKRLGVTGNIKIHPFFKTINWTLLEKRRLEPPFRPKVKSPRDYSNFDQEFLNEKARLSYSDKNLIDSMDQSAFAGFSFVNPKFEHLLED

PKCη = PKCη (Homo sapiens, UniProt P24723); set-up: key: +—activation; ++—strong activation; conditions: nPKCs, gene PRKCH; cited from earlier work
PKCη, sequence (P24723 whole entry): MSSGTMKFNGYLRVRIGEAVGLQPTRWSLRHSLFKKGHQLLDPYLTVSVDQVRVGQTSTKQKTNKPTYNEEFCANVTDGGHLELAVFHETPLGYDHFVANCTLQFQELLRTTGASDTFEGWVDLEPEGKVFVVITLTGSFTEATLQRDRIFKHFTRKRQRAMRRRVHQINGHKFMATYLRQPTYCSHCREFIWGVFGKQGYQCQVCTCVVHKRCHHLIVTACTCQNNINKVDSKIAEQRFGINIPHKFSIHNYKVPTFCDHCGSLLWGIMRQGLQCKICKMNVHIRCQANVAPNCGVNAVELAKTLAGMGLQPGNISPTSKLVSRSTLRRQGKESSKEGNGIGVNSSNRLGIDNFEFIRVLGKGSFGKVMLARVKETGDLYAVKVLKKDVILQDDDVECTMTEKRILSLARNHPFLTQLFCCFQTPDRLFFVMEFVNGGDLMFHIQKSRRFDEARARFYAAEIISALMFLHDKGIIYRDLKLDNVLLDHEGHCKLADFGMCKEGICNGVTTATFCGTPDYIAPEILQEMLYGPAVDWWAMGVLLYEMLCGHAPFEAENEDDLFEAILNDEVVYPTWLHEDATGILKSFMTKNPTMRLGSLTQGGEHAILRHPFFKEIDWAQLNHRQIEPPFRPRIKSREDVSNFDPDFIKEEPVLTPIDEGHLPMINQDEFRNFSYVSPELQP

PKCθ = PKCθ (Homo sapiens, UniProt Q04759); set-up: key: +—activation; ++—strong activation; conditions: nPKCs, gene PRKCQ; cited from earlier work
PKCθ, sequence (Q04759 whole entry): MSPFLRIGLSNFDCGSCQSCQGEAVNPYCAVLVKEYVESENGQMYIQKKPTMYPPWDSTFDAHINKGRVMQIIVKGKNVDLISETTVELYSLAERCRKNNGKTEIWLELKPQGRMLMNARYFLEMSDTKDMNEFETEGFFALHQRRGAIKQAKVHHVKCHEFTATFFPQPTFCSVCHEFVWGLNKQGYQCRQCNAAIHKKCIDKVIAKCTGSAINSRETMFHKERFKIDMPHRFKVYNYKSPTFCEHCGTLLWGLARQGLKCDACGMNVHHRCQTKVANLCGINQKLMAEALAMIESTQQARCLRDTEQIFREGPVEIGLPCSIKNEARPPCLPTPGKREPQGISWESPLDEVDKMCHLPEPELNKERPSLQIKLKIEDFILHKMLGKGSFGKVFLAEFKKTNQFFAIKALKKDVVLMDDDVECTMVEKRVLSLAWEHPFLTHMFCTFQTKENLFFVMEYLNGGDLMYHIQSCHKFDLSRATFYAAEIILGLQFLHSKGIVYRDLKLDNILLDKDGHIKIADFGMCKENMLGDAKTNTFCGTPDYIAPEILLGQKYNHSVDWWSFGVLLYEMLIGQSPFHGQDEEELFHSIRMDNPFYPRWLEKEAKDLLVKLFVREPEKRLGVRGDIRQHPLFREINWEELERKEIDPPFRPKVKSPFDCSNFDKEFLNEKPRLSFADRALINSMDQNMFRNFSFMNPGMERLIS

U373 cells = assay: SMS assay in U373 cells; format: cell-based, human; conditions: versus vehicle and PMA (10 nM), FIG. 2C
Excerpt: as §1, §6, §7
as §5, with “line).” for “line). Active PKCm in the SMS assay (FIG. 2A) show a decrease in acceptor cells relative to vehicle at certain concentration.”

| Compound | effect on cell dye-sharing in the SMS assay [1] | cell dye-sharing in the SMS assay (percentage of acceptor cells) (Hs578T cells) | inhibition of cell dye-sharing in the SMS assay [1] | activation of PKCα (PKCα) | activation of PKCε (PKCε) | activation of PKCβI/PKCβII (PKCβI/PKCβII) | activation of PKCγ (PKCγ) | activation of PKCδ (PKCδ) | further results |
| --- | --- | --- | --- | --- | --- | --- | --- | --- | --- |
| CCCCCCCCCCNc1cc(CO)c2cc[nH]c2c1 [6-(N-Decylamino)-4-Hydroxymethylindole] | did not have any effect | not interfering with cell dye-sharing |  |  |  |  |  |  |  |
| CCC/C=C/C=C/C(=O)O[C@H]1/C(=C/C(=O)OC)C[C@H]2C[C@H]([C@@H](C)O)OC(=O)C[C@H](O)C[C@@H]3C[C@H](OC(C)=O)C(C)(C)[C@](O)(C[C@@H]4C/C(=C/C(=O)OC)C[C@H](/C=C/C(C)(C)[C@]1(O)O2)O4)O3 [Bryostatin 1] |  |  | marked inhibition of cell dye-sharing | + | + |  |  |  | cell dye-sharing in the SMS assay (percentage of acceptor cells) (HepG2 cells): inhibition of cell dye-sharing; activation of PKCβI (PKCβI/PKCβII; βI only, activation and translocation in transfected CHO cells (Wender 2011)): + (βI) |
| CCCCCC1CC1CC1CC1CCCCCCCC(=O)O (centres unmarked) [FR236924] | did not have any effect | not interfering with cell dye-sharing |  |  |  |  |  |  |  |
| CC(C)[C@H]1C(=O)N[C@H](CO)Cc2c[nH]c3cccc(c23)N1C [Indolactam V] |  | inhibition of cell dye-sharing | marked inhibition of cell dye-sharing | + | + | ++ | + | ++ | activation of PKCη (PKCη): + |
| C/C=C(/C)C(=O)O[C@H]1C(C)=C[C@]23C(=O)[C@@H](C=C(CO)[C@@H](O)[C@]12O)[C@H]1[C@@H](C[C@H]3C)C1(C)C [Ingenol-3-angelate] | did not have any effect |  |  | + | + | + | + | + | disconnection of tumour cell types in the assay for disconnection ([1]; several different tumour cell types): does not disconnect |
| CCCCCCCCCCCCCC(=O)O[C@@H]1[C@@H](C)[C@@]2(O)[C@@H](C=C(CO)C[C@]3(O)C(=O)C(C)=C[C@@H]23)[C@@H]2C(C)(C)[C@]12OC(C)=O [PMA, 12-O-tetradecanoyl-phorbol-13-acetate] |  | inhibition of cell dye-sharing | marked inhibition of cell dye-sharing | + | + | + | + | + | activation of PKCη (PKCη): +; activation of PKCθ (PKCθ): + |
| O=S(=O)(NCCCCCCc1ccccc1)c1cccc2c(Cl)cccc12 [SC-9] | did not have any effect | not interfering with cell dye-sharing |  |  |  |  |  |  |  |
| CCC/C=C/C=C/C(=O)O[C@H]1/C(=C/C(=O)OC)C[C@H]2C[C@H]([C@@H](C)O)OC(=O)C[C@H](O)C[C@@H]3C[C@H](OC(C)=O)C(C)(C)[C@](O)(C[C@@H]4C/C(=C/C(=O)OC)C[C@H](/C=C/C(C)(C)[C@]1(O)O2)O4)O3 [bryostatin] |  | inhibition of cell dye-sharing |  |  |  |  |  |  |  |
| Bryostatin 2 |  |  | marked inhibition of cell dye-sharing |  |  |  |  |  | cell dye-sharing in the SMS assay (percentage of acceptor cells) (U373 cells): inhibition of cell dye-sharing |
